Here are results for 30 compounds from patent US9073892B2, “Indazolyl triazol derivatives” (Merck Serono S.A., priority 2010, dated 2015).

SMILES strings stand for the structures. Where a name gives a salt, the structure may show the parent alone. Bounds are passed on as bounds.

Assay [1] relates to IL-6 secretion in human PBMC. As to the kind of experiment: IRAK IL-6 secretion functional assay in human PBMC. It counts as cell-based. Conditions: preincubated 1 h with test article, stimulated with 10 ng/ml IL1, 18-20 h, ELISA. How it is done:
IRAK IL-6 Secretion Functional Assay in Human PBMC
Human PBMCs from healthy volunteers were purified from buffy coats of heparinized whole blood by density centrifugation on Ficoll-Hypaque. Isolated PBMCs were washed twice in PBS, counted, and seeded at a density of 7×10^4 cells/well in 180 µl of complete RPMI 1640 medium containing 10% heat-inactivated FBS. PBMC were preincubated for 1 h with serial dilutions of test article dissolved in DMSO (final DMSO concentration 0.33%) at 37° C. in a 5% CO2 incubator. PBMC were then stimulated with 10 ng/ml of IL1-(final volume […]) and incubation was continued for 18-20 h. The supernatants were collected and IL-6 was quantified using the Duo-set ELISA kit (R&D Systems) following manufacturer's instructions
(In general: In an ELISA, binding on a coated surface is turned into a signal by an enzyme label.)

The subject of the next assay is T1, IRAK1/4 human.
T1 construct: fused on or other part: His tag and TEV cleavage site at the N-terminus
As to the kind of experiment: IRAK1/4 phosphorylation IC50 (enzymatic assay, table 2). The note with it: human IRAK1/4 phosphorylation. The assay is classed as biochemical. An outline of the steps:
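Inhibition values are IC50s. They come from 384-well reactions in which His-TEV-tagged human IRAK-1 or IRAK-4 (the latter with STK1-biotin peptide) met ATP and compounds in DMSO at 20 µM to 1 nM. The buffer was 50 mM Hepes pH7.0 containing MgCl2, DTT, EGTA and BSA, and incubation lasted 2 or 3 hours.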

For assay [2], the system named is IL1β-induced IL8 release in THP1 cells. As to the kind of experiment: IRAK IL8 secretion functional assay. It counts as cell-based. The note with it: Homo sapiens; THP-1 cells, IL1β 100 ng/ml overnight, IL8 by HTRF; read-out: IC50, Secretion THP-1/IL-β induced IL8 release. The method in brief: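 THP-1 cells (30,000/well, RPMI 1640) were incubated overnight at 37 °C, 5% CO2 with compound (20 μM to 1 nM) plus IL1β at 100 ng/ml final. IL-8 in the supernatant was measured by HTRF with europium cryptate- and XL665-labelled anti-IL8 antibodies, read after 3 h at 30 °C.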

For the compound `O=c1ccc(-c2cccnc2)nn1Cc1ccc2[nH]nc(-c3cn(-c4ccc(CN5CCOCC5)cc4)nn3)c2c1` [Example 197], the IC50 is below 200 nM in assay [1] and below 100 nM with IRAK1/4 human.
Consider `Cc1ccc2c(-c3cn(-c4ccc(C5CCN(C6CCOCC6)CC5)cc4)nn3)n[nH]c2c1` [Example 298], for which the IC50 in assay [1] is 200 to 2000 nM; with IRAK1/4 human, 100 to 1000 nM.
For `Cc1ccc2c(-c3cn(-c4ccc(C5CCN(CC(O)C(F)(F)F)CC5)cc4)nn3)n[nH]c2c1` (centres unmarked) [Example 136, 1,1,1-trifluoro-3-(4-{4-[4-(6-methyl-1H-indazol-3-yl)-1H-1,2,3-triazol-1-yl]phenyl}piperidin-1-yl)propan-2-ol] the same measures were 200 to 2000 nM and below 100 nM.
Consider `CN(C)C1CCN(C(=O)c2ccc(-n3cc(-c4n[nH]c5ccc(F)cc45)nn3)cc2)CC1` [Example 158], for which the IC50 in assay [1] is below 200 nM.
Regarding `O=C(c1ccc(-n2cc(-c3n[nH]c4ccccc34)nn2)cc1)N1CC(O)C1` [Example 114, 1-{4-[4-(1H-indazol-3-yl)-1H-1,2,3-triazol-1-yl]benzoyl}azetidin-3-ol], the IC50 (in assay [2]; with IRAK1/4 human) was 100 to 1000 nM in each case.
`CN(C)C1CCN(C(=O)c2ccc(-n3cc(-c4n[nH]c5ccccc45)nn3)cc2)CC1` [Example 72, 1-{4-[4-(1H-indazol-3-yl)-1H-1,2,3-triazol-1-yl]benzoyl}-N,N-dimethylpiperidin-4-amine]: the IC50 in assay [2] is below 100 nM; in the assay with IRAK1/4 human, 100 to 1000 nM.
For `CC(=O)N1CCN(C(=O)c2ccc(-n3cc(-c4n[nH]c5ccccc45)nn3)cc2)CC1` [Example 39, 3-(1-{4-[(4-acetylpiperazin-1-yl)carbonyl]phenyl}-1H-1,2,3-triazol-4-yl)-1H-indazole] the same measures were 100 to 1000 nM and 100 to 1000 nM.
For `c1cc(CCN2CCOCC2)cc(-n2cc(-c3n[nH]c4ccccc34)nn2)c1` [Example 80, 3-{1-[3-(2-morpholin-4-ylethyl)phenyl]-1H-1,2,3-triazol-4-yl}-1H-indazole] the same measures were 1000 to 5000 nM and 1000 to 5000 nM.
Regarding `O=C(NCCN1CCCCC1)c1ccc(-n2cc(-c3n[nH]c4ccccc34)nn2)cc1` [Example 44, 4-[4-(1H-indazol-3-yl)-1H-1,2,3-triazol-1-yl]-N-(2-piperidin-1-ylethyl)benzamide], the IC50 (in assay [2]; with IRAK1/4 human) was 100 to 1000 nM in each case.
In the case of `O=C(c1ccc(-n2cc(-c3n[nH]c4ccccc34)nn2)cc1)N1CCC(N2CCCC2)CC1` [Example 120, 3-(1-{4-[(4-pyrrolidin-1-ylpiperidin-1-yl)carbonyl]phenyl}-1H-1,2,3-triazol-4-yl)-1H-indazole], the IC50 (in assay [2]; in the assay with IRAK1/4 human) was 100 to 1000 nM throughout.
As for `CN1CCC(n2cc(NC(=O)c3ccc(-n4cc(-c5n[nH]c6ccccc56)nn4)cc3)cn2)C1` (centres unmarked) [Example 112, 4-[4-(1H-indazol-3-yl)-1H-1,2,3-triazol-1-yl]-N-[1-(1-methylpyrrolidin-3-yl)-1H-pyrazol-4-yl]benzamide], the IC50 is 100 to 1000 nM in assay [2] and below 100 nM with IRAK1/4 human.
With `CCNC(=O)c1ccc(-n2cc(-c3n[nH]c4ccccc34)nn2)cc1` [Example 49, N-ethyl-4-[4-(1H-indazol-3-yl)-1H-1,2,3-triazol-1-yl]benzamide], the IC50 (in assay [2]; in the assay on IRAK1/4 human) was 100 to 1000 nM in each case.
For `O=C(Cc1ccc(-n2cc(-c3n[nH]c4ccccc34)nn2)cc1)N1CCCC1` [Example 19, 3-{1-[4-(2-oxo-2-pyrrolidin-1-ylethyl)phenyl]-1H-1,2,3-triazol-4-yl}-1H-indazole], the IC50 (in assay [2]; in the assay with IRAK1/4 human) was 100 to 1000 nM each time.
Regarding `COCCC1CCCN(C(=O)c2ccc(-n3cc(-c4n[nH]c5ccccc45)nn3)cc2)C1` (centres unmarked) [Example 113], the IC50 (in assay [2]; with IRAK1/4 human) was 100 to 1000 nM each time.
Regarding `O=C(NCCCN1CCCC1)c1ccc(-n2cc(-c3n[nH]c4ccccc34)nn2)cc1` [Example 40, 4-[4-(1H-indazol-3-yl)-1H-1,2,3-triazol-1-yl]-N-(3-pyrrolidin-1-ylpropyl)benzamide], the IC50 (in assay [2]; with IRAK1/4 human) was 100 to 1000 nM each time.
In the case of `O=C(c1ccc(-n2cc(-c3n[nH]c4ccccc34)nn2)cc1)N1CCCC(Cn2ccnc2)C1` (centres unmarked) [Example 126, 3-[1-(4-{[3-(1H-imidazol-1-ylmethyl)piperidin-1-yl]carbonyl}phenyl)-1H-1,2,3-triazol-4-yl]-1H-indazole], the IC50 was 100 to 1000 nM in assay [2] and below 100 nM in the assay on IRAK1/4 human.
The corresponding values for `O=C(Nc1cnn(C2CCCNCC2)c1)c1ccc(-n2cc(-c3n[nH]c4ccccc34)nn2)cc1` (centres unmarked) [Example 129, N-(1-azepan-4-yl-1H-pyrazol-4-yl)-4-[4-(1H-indazol-3-yl)-1H-1,2,3-triazol-1-yl]benzamide hydrochloride] are 1000 to 5000 nM and 100 to 1000 nM.
The corresponding values for `COCC1CCN(C(=O)c2ccc(-n3cc(-c4n[nH]c5ccccc45)nn3)cc2)CC1` [Example 37, 3-[1-(4-{[4-(methoxymethyl)piperidin-1-yl]carbonyl}phenyl)-1H-1,2,3-triazol-4-yl]-1H-indazole] are 100 to 1000 nM and 100 to 1000 nM.
For `O=C(Nc1cnn(C2CCNCC2)c1)c1ccc(-n2cc(-c3n[nH]c4ccccc34)nn2)cc1` [Example 128, 4-[4-(1H-indazol-3-yl)-1H-1,2,3-triazol-1-yl]-N-(1-piperidin-4-yl-1H-pyrazol-4-yl)benzamide hydrochloride] the same measures were 1000 to 5000 nM and 100 to 1000 nM.
Consider `CCN1CCC[C@@H]1CNC(=O)c1ccc(-n2cc(-c3n[nH]c4ccc(C)cc34)nn2)cc1` [Example 3, N-{[(2R)-1-ethylpyrrolidin-2-yl]methyl}-4-[4-(5-methyl-1H-indazol-3-yl)-1H-1,2,3-triazol-1-yl]benzamide], for which the IC50 (in assay [2]; with IRAK1/4 human) was 100 to 1000 nM each time.
As to `CNCc1ccc(-n2cc(-c3n[nH]c4ccc(C)cc34)nn2)cc1` [Example 8, N-methyl-1-{4-[4-(5-methyl-1H-indazol-3-yl)-1H-1,2,3-triazol-1-yl]phenyl}methanamine], the IC50 (in assay [2]; with IRAK1/4 human) was 100 to 1000 nM each time.
On to `Cc1ccc2[nH]nc(-c3cn(-c4ccc(CN(C)C)cc4)nn3)c2c1` [Example 10, N,N-dimethyl-1-{4-[4-(5-methyl-1H-indazol-3-yl)-1H-1,2,3-triazol-1-yl]phenyl}methanamine], for which the IC50 (in assay [2]; with IRAK1/4 human) was 100 to 1000 nM in each case.
For the compound `CN1CC=C(c2ccc3[nH]nc(-c4cn(-c5ccc(C(=O)N6CCOCC6)cc5)nn4)c3c2)CC1` [Example 104, 5-(1-methyl-1,2,3,6-tetrahydropyridin-4-yl)-3-{1-[4-(morpholin-4-ylcarbonyl)phenyl]-1H-1,2,3-triazol-4-yl}-1H-indazole], the IC50 in assay [2] was 100 to 1000 nM; with IRAK1/4 human it was below 100 nM.
For `O=C(c1ccc(-n2cc(-c3n[nH]c4ccc(Cn5nc(-c6ccncc6)ccc5=O)cc34)nn2)cc1)N1CCOCC1` [Example 103, 2-[(3-{1-[4-(morpholin-4-ylcarbonyl)phenyl]-1H-1,2,3-triazol-4-yl}-1H-indazol-5-yl)methyl]-6-pyridin-4-ylpyridazin-3(2H)-one] the same measures were 100 to 1000 nM and below 100 nM.
The corresponding values for `O=C(NCC1CC1)c1ccc(-n2cc(-c3n[nH]c4ccccc34)nn2)cc1` [Example 55] are 100 to 1000 nM and 100 to 1000 nM.
Turning to `Cc1ccc2[nH]nc(-c3cn(-c4ccc(CN5CCNCC5)cc4)nn3)c2c1` [Example 11, 5-methyl-3-{1-[4-(piperazin-1-ylmethyl)phenyl]-1H-1,2,3-triazol-4-yl}-1H-indazole], the IC50 (in assay [2]; in the assay with IRAK1/4 human) was 100 to 1000 nM in each case.
Consider `CN(C)C1CCN(C(=O)c2ccc(-n3cc(-c4n[nH]c5ccccc45)nn3)cc2)C1` (centres unmarked) [Example 27, 1-{4-[4-(1H-indazol-3-yl)-1H-1,2,3-triazol-1-yl]benzoyl}-N,N-dimethylpyrrolidin-3-amine], for which the IC50 (in assay [2]; in the assay with IRAK1/4 human) was 100 to 1000 nM in each case.
Regarding `c1cc(CCCN2CCOCC2)cc(-n2cc(-c3n[nH]c4ccccc34)nn2)c1` [Example 86, 3-{1-[3-(3-morpholin-4-ylpropyl)phenyl]-1H-1,2,3-triazol-4-yl}-1H-indazole], the IC50 (in assay [2]; in the assay with IRAK1/4 human) was 1000 to 5000 nM in each case.
In the case of `CN1CCN(C(=O)Cc2cccc(-n3cc(-c4n[nH]c5ccccc45)nn3)c2)CC1` [Example 79, 3-(1-{3-[2-(4-methylpiperazin-1-yl)-2-oxoethyl]phenyl}-1H-1,2,3-triazol-4-yl)-1H-indazole], the IC50 (in assay [2]; with IRAK1/4 human) was 1000 to 5000 nM in each case.
As for `O=C(c1ccc(-n2cc(-c3n[nH]c4ccccc34)nn2)cc1)N1CCC(O)CC1` [Example 71, 1-{4-[4(1H-indazol-3-yl)-1H-1,2,3-triazol-1-yl]benzoyl}piperidin-ol], the IC50 (in assay [2]; in the assay on IRAK1/4 human) was 100 to 1000 nM in each case.
